Measured values from patent US10660877B2 (BRISTOL-MYERS SQUIBB COMPANY, priority 2016, dated 2020).

How the values were obtained:
human TLR7 = human TLR7 (Homo sapiens (Human), UniProt Q9NYK1); assay: TLR7 inhibition reporter assay (HEK-Blue cells, SEAP reporter, gardiquimod stimulation); format: cell-based; conditions: HEK-Blue cells overexpressing human TLR7, gardiquimod 7.5 μM
human TLR8 = human TLR8 (Homo sapiens (Human), UniProt Q9NR97); assay: TLR8 inhibition reporter assay (HEK-Blue cells, SEAP reporter, R848 stimulation); conditions: read-out: TLR8 IC50, HEK-Blue cells overexpressing human TLR8, R848 15.9 μM;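 note: compounds tested from 0.05 nM to 50 µM, 22 h at 37 °C, SEAP measured with HEK-Blue Detection, inhibition relative to agonist plus DMSO versus a known inhibitor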
Sequence of human TLR8 (Q9NR97 27-1041): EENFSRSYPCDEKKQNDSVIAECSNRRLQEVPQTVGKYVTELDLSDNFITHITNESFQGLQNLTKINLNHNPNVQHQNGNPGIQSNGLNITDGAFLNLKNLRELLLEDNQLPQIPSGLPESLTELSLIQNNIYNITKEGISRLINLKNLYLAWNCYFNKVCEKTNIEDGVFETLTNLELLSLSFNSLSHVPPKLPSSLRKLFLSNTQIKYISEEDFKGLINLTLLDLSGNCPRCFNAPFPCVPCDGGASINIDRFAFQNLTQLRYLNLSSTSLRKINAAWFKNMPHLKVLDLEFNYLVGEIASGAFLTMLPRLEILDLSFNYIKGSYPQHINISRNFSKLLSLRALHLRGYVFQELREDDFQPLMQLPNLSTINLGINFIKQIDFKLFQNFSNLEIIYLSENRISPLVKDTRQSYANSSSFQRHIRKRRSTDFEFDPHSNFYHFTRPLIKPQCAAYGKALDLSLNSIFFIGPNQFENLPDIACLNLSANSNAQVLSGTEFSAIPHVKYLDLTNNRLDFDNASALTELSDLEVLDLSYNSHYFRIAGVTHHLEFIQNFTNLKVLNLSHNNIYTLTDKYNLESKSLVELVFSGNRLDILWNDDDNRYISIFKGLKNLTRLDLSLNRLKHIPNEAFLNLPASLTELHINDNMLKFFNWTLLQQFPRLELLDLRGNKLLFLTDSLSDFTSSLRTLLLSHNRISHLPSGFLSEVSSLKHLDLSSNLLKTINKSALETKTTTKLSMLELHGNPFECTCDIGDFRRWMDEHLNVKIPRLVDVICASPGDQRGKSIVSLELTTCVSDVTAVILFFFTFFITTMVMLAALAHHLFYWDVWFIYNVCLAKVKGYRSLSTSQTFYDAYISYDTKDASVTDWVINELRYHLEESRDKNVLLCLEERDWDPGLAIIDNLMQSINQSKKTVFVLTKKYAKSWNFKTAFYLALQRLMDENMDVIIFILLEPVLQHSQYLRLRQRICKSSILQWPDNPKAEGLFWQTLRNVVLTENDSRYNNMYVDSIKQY

human TLR9 = human TLR9 (Homo sapiens (Human), UniProt Q9NR96); assay: TLR9 inhibition reporter assay (HEK-Blue cells, SEAP reporter, ODN2006 stimulation); conditions: read-out: TLR9 IC50, HEK-Blue cells overexpressing human TLR9, ODN2006 5 nM;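 note: compounds tested over 0.05 nM to 50 µM, 22 h incubation, inhibition taken as SEAP signal drop from agonist plus DMSO wells toward a known inhibitor control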
Sequence of human TLR9 (Q9NR96 26-1032): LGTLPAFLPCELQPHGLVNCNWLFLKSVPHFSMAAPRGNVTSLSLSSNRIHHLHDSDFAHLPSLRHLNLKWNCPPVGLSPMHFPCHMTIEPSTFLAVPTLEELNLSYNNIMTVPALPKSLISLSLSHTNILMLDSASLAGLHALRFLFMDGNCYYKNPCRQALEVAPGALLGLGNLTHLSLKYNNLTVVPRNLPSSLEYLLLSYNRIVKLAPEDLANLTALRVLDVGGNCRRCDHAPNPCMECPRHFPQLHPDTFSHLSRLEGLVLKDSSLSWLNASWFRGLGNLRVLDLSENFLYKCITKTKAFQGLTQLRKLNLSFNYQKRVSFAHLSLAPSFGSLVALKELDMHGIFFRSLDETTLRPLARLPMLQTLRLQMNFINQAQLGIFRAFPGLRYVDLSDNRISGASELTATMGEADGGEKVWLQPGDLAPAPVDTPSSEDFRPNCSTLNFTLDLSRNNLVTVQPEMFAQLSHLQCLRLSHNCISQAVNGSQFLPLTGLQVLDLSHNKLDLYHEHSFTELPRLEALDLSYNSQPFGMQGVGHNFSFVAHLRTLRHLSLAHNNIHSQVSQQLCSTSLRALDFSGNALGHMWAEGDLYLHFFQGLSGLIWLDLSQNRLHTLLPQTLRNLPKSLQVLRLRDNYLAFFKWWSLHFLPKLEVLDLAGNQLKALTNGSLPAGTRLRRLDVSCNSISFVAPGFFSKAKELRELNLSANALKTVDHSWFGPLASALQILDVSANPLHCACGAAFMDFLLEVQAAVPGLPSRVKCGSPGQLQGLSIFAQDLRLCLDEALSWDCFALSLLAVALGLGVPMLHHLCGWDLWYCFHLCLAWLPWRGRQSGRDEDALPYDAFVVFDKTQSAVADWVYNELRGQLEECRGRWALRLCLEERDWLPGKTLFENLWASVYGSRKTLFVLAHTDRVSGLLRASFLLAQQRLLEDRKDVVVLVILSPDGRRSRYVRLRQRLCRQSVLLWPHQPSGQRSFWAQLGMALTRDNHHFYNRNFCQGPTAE

Sequence of human TLR7 (Q9NYK1 27-1049): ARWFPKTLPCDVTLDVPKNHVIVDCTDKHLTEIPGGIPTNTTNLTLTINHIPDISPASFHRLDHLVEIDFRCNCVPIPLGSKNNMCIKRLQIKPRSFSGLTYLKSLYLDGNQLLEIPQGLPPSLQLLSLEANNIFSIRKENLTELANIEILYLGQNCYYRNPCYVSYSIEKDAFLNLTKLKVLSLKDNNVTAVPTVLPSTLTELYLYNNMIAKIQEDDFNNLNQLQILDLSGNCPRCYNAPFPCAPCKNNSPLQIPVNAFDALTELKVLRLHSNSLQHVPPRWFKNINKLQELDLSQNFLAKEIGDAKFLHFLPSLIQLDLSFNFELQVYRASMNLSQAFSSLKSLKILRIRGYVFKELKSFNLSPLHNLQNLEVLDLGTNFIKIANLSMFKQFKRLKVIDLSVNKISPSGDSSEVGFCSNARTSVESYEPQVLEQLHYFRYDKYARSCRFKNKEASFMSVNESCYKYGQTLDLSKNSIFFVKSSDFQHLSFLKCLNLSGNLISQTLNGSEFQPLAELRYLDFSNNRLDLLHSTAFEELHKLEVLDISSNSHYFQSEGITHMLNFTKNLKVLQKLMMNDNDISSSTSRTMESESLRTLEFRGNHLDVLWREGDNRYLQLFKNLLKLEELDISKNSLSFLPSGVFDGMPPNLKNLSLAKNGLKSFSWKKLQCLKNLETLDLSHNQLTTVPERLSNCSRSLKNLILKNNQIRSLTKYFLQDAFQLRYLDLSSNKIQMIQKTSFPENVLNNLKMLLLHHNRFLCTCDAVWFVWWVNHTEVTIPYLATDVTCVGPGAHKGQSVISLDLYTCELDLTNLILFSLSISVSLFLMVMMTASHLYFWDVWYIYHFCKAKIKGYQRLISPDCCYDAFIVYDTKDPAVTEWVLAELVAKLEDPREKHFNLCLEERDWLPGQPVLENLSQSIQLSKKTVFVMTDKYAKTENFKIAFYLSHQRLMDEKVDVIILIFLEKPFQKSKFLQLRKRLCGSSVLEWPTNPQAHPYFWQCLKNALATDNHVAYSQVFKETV

SMILES | IC50 (human TLR7) [nM] | IC50 (human TLR8) [nM] | IC50 (human TLR9) [nM]
Cc1cc(-c2[nH]c3ccc(C4CCN(Cc5nnn[nH]5)CC4)cc3c2C(C)C)c(C)cn1 [Example 695, 5-(1-((1H-tetrazol-5-yl)methyl)piperidin-4-yl)-2-(2,5-dimethylpyridin-4-yl)-3-isopropyl-1H-indole] | 1310 | 111 | > 50000
Cc1cc(-c2[nH]c3ccc(C4CCN(Cc5nnn[nH]5)CC4)cc3c2C(C)C)c(F)cn1 [Example 696, 5-(1-((1H-tetrazol-5-yl)methyl)piperidin-4-yl)-2-(5-fluoro-2-methylpyridin-4-yl)-3-isopropyl-1H-indole] | 408 | 104 | > 50000
Cc1cc(-c2[nH]c3ccc(C4CCN(Cc5nnc(C6CC6)o5)CC4)cc3c2C(C)C)c(C)cn1 [Example 697, 2-cyclopropyl-5-((4-(2-(2,5-dimethylpyridin-4-yl)-3-isopropyl-1H-indol-5-yl)piperidin-1-yl)methyl)-1,3,4-oxadiazole] | 223 | 20.7 | > 50000
Cc1cc(-c2[nH]c3ccc(C4CCN(Cc5nnc(C6CC6)o5)CC4)cc3c2C(C)C)c(F)cn1 [Example 698, 2-cyclopropyl-5-((4-(2-(5-fluoro-2-methylpyridin-4-yl)-3-isopropyl-1H-indol-5-yl)piperidin-1-yl)methyl)-1,3,4-oxadiazole] | 54.2 | 37.6 | 12400
Cc1cc(-c2[nH]c3ccc(C4CCN(Cc5ncco5)CC4)cc3c2C(C)C)c(C)cn1 [Example 699, 2-((4-(2-(2,5-dimethylpyridin-4-yl)-3-isopropyl-1H-indol-5-yl)piperidin-1-yl)methyl)oxazole] | 38.7 | 4.2 | 40300
Cc1cc(-c2[nH]c3ccc(C4CCN(Cc5ncco5)CC4)cc3c2C(C)C)c(F)cn1 [Example 700, 2-((4-(2-(5-fluoro-2-methylpyridin-4-yl)-3-isopropyl-1H-indol-5-yl)piperidin-1-yl)methyl)oxazole] | 55.8 | 16 | > 50000
Cc1cc(-c2[nH]c3ccc(C4CCN(C5CCN(C(C)C)CC5)CC4)cc3c2C(C)C)ccn1 [Example 701, 3-isopropyl-5-(1′-isopropyl-[1,4′-bipiperidin]-4-yl)-2-(2-methylpyridin-4-yl)-1H-indole] | 6.5 | 5.8 | 163
Cc1cc(-c2[nH]c3ccc(C4CCN(C5CCCNC5O)CC4)cc3c2C(C)C)ccn1 (stereo not drawn) [Example 702, 4-(3-isopropyl-2-(2-methylpyridin-4-yl)-1H-indol-5-yl)-[1,3′-bipiperidin]-2′-ol] | 14.4 | 2.9 | 432
Cc1cc(-c2[nH]c3ccc(C4CCN(C5CCCNC5)CC4)cc3c2C(C)C)ccn1 (stereo not drawn) [Example 703, 5-([1,3′-bipiperidin]-4-yl)-3-isopropyl-2-(2-methylpyridin-4-yl)-1H-indole] | 8.8 | 1.8 | 526

Continued, values first:

IC50 (human TLR7) [nM] | IC50 (human TLR8) [nM] | IC50 (human TLR9) [nM] | SMILES
20.9 | 4.1 | 551 | COC(=O)C1CC(N2CCC(c3ccc4[nH]c(-c5ccnc(C)c5)c(C(C)C)c4c3)CC2)CCN1 (stereo not drawn) [Example 704, methyl 4-(3-isopropyl-2-(2-methylpyridin-4-yl)-1H-indol-5-yl)-[1,4′-bipiperidine]-2′-carboxylate]
21.9 | 6.2 | 708 | Cc1cc(-c2[nH]c3ccc(C4CCN(C5CCNCC5F)CC4)cc3c2C(C)C)ccn1 (stereo not drawn) [Example 705, 5-(3′-fluoro-[1,4′-bipiperidin]-4-yl)-3-isopropyl-2-(2-methylpyridin-4-yl)-1H-indole]
23 | 5 | 340 | Cc1cc(-c2[nH]c3ccc(C4CCN(C5CCN(C(C)C)CC5F)CC4)cc3c2C(C)C)ccn1 (stereo not drawn) [Example 706, 5-(3′-fluoro-1′-isopropyl-[1,4′-bipiperidin]-4-yl)-3-isopropyl-2-(2-methylpyridin-4-yl)-1H-indole]
7.6 | 2.8 | 217 | Cc1cc(-c2[nH]c3ccc(C4CCN(C5CCCN(C(C)C)C5)CC4)cc3c2C(C)C)ccn1 (stereo not drawn) [Example 707, 3-isopropyl-5-(1′-isopropyl-[1,3′-bipiperidin]-4-yl)-2-(2-methylpyridin-4-yl)-1H-indole]
8.1 | 6.3 | 492 | Cc1cc(-c2[nH]c3ccc(C4CCN(C5CCNC(C)C5)CC4)cc3c2C(C)C)ccn1 (stereo not drawn) [Example 708, 3-isopropyl-5-(2′-methyl-[1,4′-bipiperidin]-4-yl)-2-(2-methylpyridin-4-yl)-1H-indole]
32.4 | 12.6 | 393 | Cc1cc(-c2[nH]c3ccc(C4CCN(C5CCNCC5C)CC4)cc3c2C(C)C)ccn1 (stereo not drawn) [Example 709, 3-isopropyl-5-(3′-methyl-[1,4′-bipiperidin]-4-yl)-2-(2-methylpyridin-4-yl)-1H-indole]
8 | 3 | 554 | Cc1cc(-c2[nH]c3ccc(C4CCN(C5CCOCC5)CC4)cc3c2C(C)C)ccn1 [Example 710, 3-isopropyl-2-(2-methylpyridin-4-yl)-5-(1-(tetrahydro-2H-pyran-4-yl)piperidin-4-yl)-1H-indole]
11 | 11.2 | 2160 | Cc1cc(-c2[nH]c3ccc(C4CCN(C5COC5)CC4)cc3c2C(C)C)ccn1 [Example 711, 3-isopropyl-2-(2-methylpyridin-4-yl)-5-(1-(oxetan-3-yl)piperidin-4-yl)-1H-indole]
36.8 | 16.4 | 1190 | Cc1cc(-c2[nH]c3ccc(C4CCN(C5CC(C)OC(C)C5)CC4)cc3c2C(C)C)ccn1 (stereo not drawn) [Example 712, 5-(1-(2,6-dimethyltetrahydro-2H-pyran-4-yl)piperidin-4-yl)-3-isopropyl-2-(2-methylpyridin-4-yl)-1H-indole]
3.5 | 14.8 | 550 | Cc1cc(-c2[nH]c3ccc(C4CCN(C5CC(C)OC(C)C5)CC4)cc3c2C(C)C)ccn1 (stereo not drawn) [Example 713, 5-(1-(2,6-dimethyltetrahydro-2H-pyran-4-yl)piperidin-4-yl)-3-isopropyl-2-(2-methylpyridin-4-yl)-1H-indole]
31.4 | 2.7 | 2210 | Cc1cc(-c2[nH]c3ccc(C4CCN(C5CCOCC5)CC4)cc3c2C(C)C)c(C)cn1 [Example 714, 2-(2,5-dimethylpyridin-4-yl)-3-isopropyl-5-(1-(tetrahydro-2H-pyran-4-yl)piperidin-4-yl)-1H-indole]
20.7 | 3.8 | 2990 | Cc1cc(-c2[nH]c3ccc(C4CCN(C5CCOCC5)CC4)cc3c2C(C)C)c(F)cn1 [Example 715, 2-(5-fluoro-2-methylpyridin-4-yl)-3-isopropyl-5-(1-(tetrahydro-2H-pyran-4-yl)piperidin-4-yl)-1H-indole]
144 | 73.3 | 1900 | Cc1nccc(-c2[nH]c3ccc(C4CCN(C5CCOCC5)CC4)cc3c2C(C)C)c1C [Example 716, 2-(2,3-dimethylpyridin-4-yl)-3-isopropyl-5-(1-(tetrahydro-2H-pyran-4-yl)piperidin-4-yl)-1H-indole]
